In patent US9884012B2, “Use of PEDF-derived polypeptides for promoting muscle or tendon regeneration or arteriogenesis” (MacKay Memorial Hospital, priority 2012, dated 2018):

Tests used:
[1] = test system: soleus muscle (muscle fibers, satellite cells); assay: bupivacaine myonecrosis model, BrdU and Pax7 labeling of soleus muscle; type: in vivo, Sprague-Dawley rats; conditions: soleus muscle after bupivacaine injection; for BrdU Labeling Index (%): 50 μl sustained-release formulation (Bolus: bolus 29-mer), single intramuscular injection; for Pax7 Labeling Index (%): sustained-release formulation (Bolus: bolus 29-mer)
Method: De-paraffinized tissue sections were blocked with 10% goat serum for 1 hour. Staining was done using primary antibodies against BrdU (1:50 dilution; GTX42641) or type I collagen 1A1 (1:50 dilution) overnight at 4° C., followed by incubation with the appropriate peroxidase-labeled donkey immunoglobulin for 30 min and then with chromogen substrate (3,3′-diaminobenzidine) for 2 min before counterstaining with hematoxylin. Quantification was estimated based on high quality images (1208×960 pixels) captured using a Nikon Eclipse 80i light microscope.
For the detection of cell expansion, BrdU was reconstituted in DMSO as stock (80 mM). 10 μl of BrdU mixed with 90 μl of PBS was intraperitoneally injected into the mouse 16 hours prior to euthanasia. Also, 150 μl of BrdU mixed with 350 μl of PBS was intraperitoneally injected into the rat 16 hours prior to euthanasia. DNA synthesis was assessed by BrdU labeling with anti-BrdU antibodies.
De-paraffinized tissue sections or 4% paraformaldehyde fixed rabbit tendon stem cells (TSCs) were blocked with 10% goat serum and 5% BSA for 1 hour. Double staining was done using primary antibodies against α-SMA (1:100 dilution), IB4 (5 μg/ml), Pax7 (1:100 dilution), nucleostemin (1:100 dilution) and type I collagen 1A1 (1:50) at 37° C. for 2 hours, followed by incubation with the appropriate rhodamine- or FITC-conjugated donkey IgG for 1 hour at RT. Nuclei were located by counterstaining with Hoechst 33258 for 7 minutes. Images were captured using a Zeiss epifluorescence microscope with a CCD camera.
(§1) To investigate the effects of the present PEDF peptides on muscle regeneration, a rat myonecrosis model of a single injection of bupivacaine into the soleus muscle was employed. Adult 10-week-old male Sprague-Dawley rats (initial body weight=312±11 g) were anesthetized by an intraperitoneal injection of a xylazine (10 mg/kg). Then, the soleus muscle was injured by unilaterally injecting 0.5 ml bupivacaine (AstraZeneca) with a disposable syringe with a 26-gauge needle. Briefly, the needle was inserted into the distal portion of the soleus muscle and then receded longitudinally to the proximal portion accompanying evenly bupivacaine solution injection. The solution was then injected throughout the entire length of the muscle as the needle was slowly withdrawn.
After bupivacaine injection, rats were divided equally (n=10/group) into four experimental groups and treated as follows. […]
Muscle regeneration involves proliferation of muscle fibers, or muscle cells. […] Detailed assay procedures are as described in “Materials and Methods.” The level of BrdU-positive cells was expressed as labeling index (%), which was computed as the number of labeled cells divided by the total number of cells. […]

[2] = test system: soleus muscle; assay: bupivacaine myonecrosis model, muscle fiber size (minimal Feret's diameter); type: in vivo, Sprague-Dawley rats; conditions: 14 days after injury; for diameters of muscle fibers on average versus blank or bolus control group: in words
Method: The muscle fiber size was determined on H&E-stained muscle cross section and quantified using the minimum distance of parallel tangents at opposing particle borders (minimal “Feret's diameter”). Pictures were captured using a Nikon Eclipse 80i light microscope, and the minimal Feret's diameter was measured using the Image-Pro Plus 4.5.1 software (Media Cybernetics). Normalization of the number of fibers in each fiber Feret class of 5 μm was based on the total number of muscle fibers in each picture.
as §1
After bupivacaine injection, rats were divided equally (n=10/group) into four experimental groups and treated as follows. In the blank control group, the mice were treated with 50 μl of blank alginate gel. In the treatments groups, the mice received 50 μl of the sustained-release formulation (29-mer or 20-mer). The mice in the bolus control group received the bolus formulation (29-mer). Treatments were applied by way of a single intramuscular injection to the soleus muscle immediately after the bupivacaine perfusion.
In the later stage of muscle regeneration, newly generated muscle fibers start to gain size. Muscle specimens were collected at 14 days after injury, and respective fiber diameters were measured in accordance with the procedure set forth in the section of “Materials and Methods.” Results were summarized in FIG. 9.

Sequence | BrdU Labeling Index (%) [1] [%] | Pax7 Labeling Index (%) [1] [%] | diameters of muscle fibers on average versus blank or bolus control group [2] | muscle fibers with a minimal Feret's diameter between 15-25 μm ([2]; sustained-release formulation)
SLGAEQRTESIIHRALYYDL [20-mer, synthetic peptide corresponding to residues 93-112 of human PEDF] | 13.6 ± 3.0 | 14.6 ± 1.9 | larger | about 56.6%
SLGAEQRTESIIHRALYYDLISSPDIHGT [29-mer, synthetic peptide corresponding to residues 93-121 of human PEDF] | 15.4 ± 1.7 | 16.2 ± 2.0 | larger | –
